System: Plasmodium berghei
Test: Luciferase/luciferin-expressing antifolate-resistant parasites were used to infect a culture of HepG2 cells that were pre-incubated with compounds. Infected hepatocytes emit light due to the luciferase reaction. Assay results are presented as the percent inhibition of light emission compared to control. […]
Type: functional
Conditions: sporozoite; for IC90: read-out: LUCIFERASE INFECTION ASSAY - IC90

CC(C)(C)c1csc(NC(=O)Nc2ccccc2)n1
IC50 (HEPG2TOX_HILL_SLOPE 1.38, HEPG2TOX_R_SQUARED 0.755, PBLUC_HILL_SLOPE 7.68, PBLUC_R_SQUARED 0.272, read-out: LUCIFERASE INFECTION ASSAY - IC50): 9.6 µM
IC90: > 12 µM

CCNc1ccc(C(=O)OCC)cc1NC(=O)c1cccc(N(C)C)c1
IC50 (HEPG2TOX_HILL_SLOPE 1.36, HEPG2TOX_R_SQUARED 0.981, PBLUC_HILL_SLOPE 2.44, PBLUC_R_SQUARED 0.636, read-out: LUCIFERASE INFECTION ASSAY - IC50): 1.08 µM
IC90: 2.65 µM

Clc1ccc(CSc2nncn2-c2ccc3c(c2)OCCO3)cc1
IC50 (HEPG2TOX_HILL_SLOPE 1.37, HEPG2TOX_R_SQUARED 0.824, PBLUC_HILL_SLOPE 1.99, PBLUC_R_SQUARED 0.536, read-out: LUCIFERASE INFECTION ASSAY - IC50): 1.16 µM
IC90: 3.5 µM

CCOC(=O)c1sc(N)c(C#N)c1CSc1nc(-c2ccccc2)cs1
IC50 (HEPG2TOX_HILL_SLOPE 1.34, HEPG2TOX_R_SQUARED 0.985, PBLUC_HILL_SLOPE 11.8, PBLUC_R_SQUARED 0.536, read-out: LUCIFERASE INFECTION ASSAY - IC50): 3.06 µM
IC90: 3.69 µM

Cc1noc(C)c1CCC(=O)Nc1nc2cc(C(F)(F)F)ccc2n1Cc1ccco1
IC50 (HEPG2TOX_HILL_SLOPE 1.36, HEPG2TOX_R_SQUARED 0.789, PBLUC_HILL_SLOPE 10.4, PBLUC_R_SQUARED 0.861, read-out: LUCIFERASE INFECTION ASSAY - IC50): 2.89 µM
IC90: 3.57 µM

Oc1ccc(-c2cnc3cnc(-c4ccc(Cl)cc4Cl)cn23)cc1
IC50 (HEPG2TOX_HILL_SLOPE 1.37, HEPG2TOX_R_SQUARED 0.776, PBLUC_HILL_SLOPE 1.58, PBLUC_R_SQUARED 0.733, read-out: LUCIFERASE INFECTION ASSAY - IC50): 0.858 µM
IC90: 3.44 µM

O=C(NNC(=O)c1nn(-c2ccccc2)cc1O)c1ccc(-n2cccn2)cc1
IC50 (HEPG2TOX_HILL_SLOPE 1.34, HEPG2TOX_R_SQUARED 0.874, PBLUC_HILL_SLOPE 11.6, PBLUC_R_SQUARED 0.65, read-out: LUCIFERASE INFECTION ASSAY - IC50): 3.53 µM
IC90: 4.26 µM

COc1cc(-c2nccc3n[nH]c(C4CC4)c23)cc(OC)c1OC
IC50 (HEPG2TOX_HILL_SLOPE 1.34, HEPG2TOX_R_SQUARED 0.994, read-out: LUCIFERASE INFECTION ASSAY - IC50): > 10 µM
IC90: > 10 µM

c1nc(NCc2ccc(CN3CCOCC3)cc2)c2c3c(sc2n1)CCC3
IC50 (HEPG2TOX_HILL_SLOPE 1.37, HEPG2TOX_R_SQUARED 0.969, PBLUC_HILL_SLOPE 10, PBLUC_R_SQUARED 0.164, read-out: LUCIFERASE INFECTION ASSAY - IC50): 1.25 µM
IC90: 1.55 µM

c1ccc(C2(CNc3ncnc4ccccc34)CCC2)cc1
IC50 (HEPG2TOX_HILL_SLOPE 1.34, HEPG2TOX_R_SQUARED 0.743, PBLUC_HILL_SLOPE 15.9, 1.42, PBLUC_R_SQUARED 0.162, 0.799, read-out: LUCIFERASE INFECTION ASSAY - IC50): 2.35 µM
IC90: 5.71 µM

COc1ccc(C(C)C)cc1-c1cc(N2CCCC2CO)n2nccc2n1 (configuration not stated)
IC50 (HEPG2TOX_HILL_SLOPE 1.35, HEPG2TOX_R_SQUARED 0.737, PBLUC_HILL_SLOPE 1.83, PBLUC_R_SQUARED 0.512, read-out: LUCIFERASE INFECTION ASSAY - IC50): 2.09 µM
IC90: 6.95 µM

Cn1c(N)c(C(=O)CSc2nc(-c3ccccc3)c(-c3ccccc3)o2)c(=O)n(C)c1=O
IC50 (HEPG2TOX_HILL_SLOPE 1.35, HEPG2TOX_R_SQUARED 0.367, PBLUC_HILL_SLOPE 15.8, PBLUC_R_SQUARED 0.143, read-out: LUCIFERASE INFECTION ASSAY - IC50): 9 µM
IC90: > 10 µM

Cc1ccc(/C(C#N)=C/c2ccc(N(C)C)cc2)cc1
IC50 (HEPG2TOX_HILL_SLOPE 1.36, HEPG2TOX_R_SQUARED 0.894, PBLUC_HILL_SLOPE 0.698, PBLUC_R_SQUARED 0.911, read-out: LUCIFERASE INFECTION ASSAY - IC50): 0.218 µM
IC90: 5.07 µM

Cn1c(-c2ccccc2)c(C(=O)COc2ccc(-c3ccccc3)cc2)c2ccccc21
IC50 (HEPG2TOX_HILL_SLOPE 1.37, HEPG2TOX_R_SQUARED 0.968, PBLUC_HILL_SLOPE 1.98, PBLUC_R_SQUARED 0.384, read-out: LUCIFERASE INFECTION ASSAY - IC50): 4.87 µM
IC90: > 10 µM

Cc1cc(NC(=O)c2cc(-c3cccs3)nc3ccccc23)n(-c2ccccn2)n1
IC50 (HEPG2TOX_HILL_SLOPE 1.34, HEPG2TOX_R_SQUARED 0.908, PBLUC_HILL_SLOPE 3.47, PBLUC_R_SQUARED 0.53, read-out: LUCIFERASE INFECTION ASSAY - IC50): 2.45 µM
IC90: 4.61 µM

Cc1c(C(=O)Nc2ccc(Oc3ccccc3)cc2)cnn1C
IC50 (HEPG2TOX_HILL_SLOPE 1.34, HEPG2TOX_R_SQUARED 0.933, PBLUC_HILL_SLOPE 3.41, PBLUC_R_SQUARED 0.294, read-out: LUCIFERASE INFECTION ASSAY - IC50): 7.03 µM
IC90: > 10 µM

O=C(Nc1nc(-c2ccccn2)cs1)c1ccc(-n2cncn2)cc1
IC50 (HEPG2TOX_HILL_SLOPE 1.34, HEPG2TOX_R_SQUARED 0.829, PBLUC_HILL_SLOPE 31.3, PBLUC_R_SQUARED 0.545, read-out: LUCIFERASE INFECTION ASSAY - IC50): 1.12 µM
IC90: 1.2 µM

CC(C)c1cccc(-c2nc3ccnc(NCc4ccccn4)c3[nH]2)c1
IC50 (HEPG2TOX_HILL_SLOPE 1.38, HEPG2TOX_R_SQUARED 0.883, PBLUC_HILL_SLOPE 3.5, PBLUC_R_SQUARED 0.343, read-out: LUCIFERASE INFECTION ASSAY - IC50): 6.01 µM
IC90: > 10 µM

Cc1cc(C)n(CCC(=O)N2CCN(C(c3ccc(F)cc3)c3ccc(F)cc3)CC2)n1
IC50 (HEPG2TOX_HILL_SLOPE 1.37, HEPG2TOX_R_SQUARED 0.338, PBLUC_HILL_SLOPE 18.9, PBLUC_R_SQUARED 0.322, read-out: LUCIFERASE INFECTION ASSAY - IC50): 9.4 µM
IC90: > 10 µM

CCn1c2ccccc2c2cc(Nc3cc(-c4cc(OC)c(OC)c(OC)c4)ncn3)ccc21
IC50 (HEPG2TOX_HILL_SLOPE 1.37, HEPG2TOX_R_SQUARED 0.859, PBLUC_HILL_SLOPE 1.98, PBLUC_R_SQUARED 0.713, read-out: LUCIFERASE INFECTION ASSAY - IC50): 0.426 µM
IC90: 1.29 µM

CNc1snc(C)c1C(=O)OCCOc1ccccc1C(C)=O
IC50 (HEPG2TOX_HILL_SLOPE 1.35, HEPG2TOX_R_SQUARED 0.846, PBLUC_HILL_SLOPE 3.65, PBLUC_R_SQUARED 0.5, read-out: LUCIFERASE INFECTION ASSAY - IC50): 3.86 µM
IC90: 7.06 µM

O=C(Nc1nc2ccccc2[nH]1)c1cccnc1Nc1ccccc1F
IC50 (HEPG2TOX_HILL_SLOPE 1.38, HEPG2TOX_R_SQUARED 0.863, PBLUC_HILL_SLOPE 3.37, PBLUC_R_SQUARED 0.741, read-out: LUCIFERASE INFECTION ASSAY - IC50): 1.98 µM
IC90: 3.81 µM

Cc1nc(NC(=O)Cc2nn(C)c(=O)c3ccccc23)sc1-c1ccccn1
IC50 (HEPG2TOX_HILL_SLOPE 1.36, HEPG2TOX_R_SQUARED 0.975, PBLUC_HILL_SLOPE 4.04, PBLUC_R_SQUARED 0.363, read-out: LUCIFERASE INFECTION ASSAY - IC50): 8.34 µM
IC90: > 10 µM

Cn1ccc2cc(-c3cn4c(-c5ccc(C#N)cc5)cnc4cn3)ccc21
IC50 (HEPG2TOX_HILL_SLOPE 1.34, HEPG2TOX_R_SQUARED 0.963, PBLUC_HILL_SLOPE 3.57, PBLUC_R_SQUARED 0.761, read-out: LUCIFERASE INFECTION ASSAY - IC50): 0.295 µM
IC90: 0.546 µM

CC(C)CCn1c(=O)c2ccccc2n2c(SCCS(=O)(=O)c3ccc(Cl)cc3)nnc12
IC50 (HEPG2TOX_HILL_SLOPE 1.35, HEPG2TOX_R_SQUARED 0.511, PBLUC_HILL_SLOPE 2.98, PBLUC_R_SQUARED 0.427, read-out: LUCIFERASE INFECTION ASSAY - IC50): 7.28 µM
IC90: > 10 µM

Cc1ccc(-c2noc(CN3CCN(c4cc(C)nc(N)n4)CC3)n2)cc1
IC50 (HEPG2TOX_HILL_SLOPE 1.35, HEPG2TOX_R_SQUARED 0.853, PBLUC_HILL_SLOPE 1.09, PBLUC_R_SQUARED 0.613, read-out: LUCIFERASE INFECTION ASSAY - IC50): 1.45 µM
IC90: > 10 µM

COc1cccc(/N=C2\SCC(C)(C)N2C(=O)c2ccccc2OCc2ccccc2C)c1
IC50 (HEPG2TOX_HILL_SLOPE 1.35, HEPG2TOX_R_SQUARED 0.857, read-out: LUCIFERASE INFECTION ASSAY - IC50): > 10 µM
IC90: > 10 µM

Cn1/c(=N/C(=O)c2ccc(=O)[nH]c2)sc2ccccc21
IC50 (HEPG2TOX_HILL_SLOPE 1.38, HEPG2TOX_R_SQUARED 0.749, PBLUC_HILL_SLOPE 1.3, PBLUC_R_SQUARED 0.494, read-out: LUCIFERASE INFECTION ASSAY - IC50): 2.61 µM
IC90: > 10 µM

O=C(c1ccc2nc[nH]c2c1)N1CCc2nc(NCc3cccc(Oc4ccccc4)c3)ncc2C1
IC50 (HEPG2TOX_HILL_SLOPE 1.36, HEPG2TOX_R_SQUARED 0.938, PBLUC_HILL_SLOPE 1.78, PBLUC_R_SQUARED 0.322, read-out: LUCIFERASE INFECTION ASSAY - IC50): 2.4 µM
IC90: > 6.92 µM

O=C1NC(c2c(-c3ccccc3)[nH]c3ccccc23)Nc2ccccc21 (configuration not stated)
IC50 (HEPG2TOX_HILL_SLOPE 1.35, HEPG2TOX_R_SQUARED 0.878, PBLUC_HILL_SLOPE 2.2, PBLUC_R_SQUARED 0.804, read-out: LUCIFERASE INFECTION ASSAY - IC50): 0.447 µM
IC90: 1.21 µM

COc1ccc(-c2cnc(N)c(-c3cccnc3)c2)cc1OC
IC50 (HEPG2TOX_HILL_SLOPE 1.35, HEPG2TOX_R_SQUARED 0.969, PBLUC_HILL_SLOPE 2.37, PBLUC_R_SQUARED 0.379, read-out: LUCIFERASE INFECTION ASSAY - IC50): 3.85 µM
IC90: 9.72 µM
